This is an account of results in patent US20110082037A1, “Adjuvant Compositions” (COGNIS IP MANAGEMENT GMBH, priority 2008, published 2011).

The subject of experiment [1] is black nightshade SOLNI (Solanum Nigrum). The experiment is described as follows: Greenhouse experiment: influence of adjuvants on glyphosate efficacy on black nightshade (fresh weight 14 DAT). Particulars: adjuvant 0.25% w/v. It counts as in vivo. The method, then:
(§1) Greenhouse experiments were conducted to investigate the potency of the mixtures of alkoxylated oligoglycosides and alkoxylated primary alcohols as adjuvants for glyphosate. Winter wheat (Triticum aestivum) was used as a model for difficult-to-wet grasses and black night-shade (Solanum nigrum) was used as a model plant with an easy-to-wet, but difficult-to-penetrate, leaf surface. Both were grown in a growth chamber under 14 hours of light, at 18/12(±0.5)° C. (day/night) temperature, and in 70/80(±5)% (day/night) relative humidity. Light was provided by high-pressure mercury lamps and fluorescent tubes to give 70 W/m^2 (PAR) at leaf level. The plants were grown in 11 cm diameter plastic pots filled with a mixture of sand and humic potting soil (1:2 by volume). The pots were placed on sub-irrigation matting which was wetted daily with half-strength nutrient solution. After emergence, the wheat seedlings were thinned to six plants/pot for the efficacy experiments. Black nightshade seedlings were thinned to one plant/pot. Black nightshade and wheat were treated at the three- and the four-leaf stage, respectively. The fresh weights of the plants were measured 14 days after treatment (DAT) for black nightshade and 21 DAT for wheat. The glyphosate solutions were applied with an air-pressured laboratory track sprayer with 1.2-mm nozzles fitted with a perforated (0.6 mm) whirling pin and delivering 200 L/ha at 303 kPa. These were added to the unformulated monoisopropylamine salt of glyphosate [MON 8717 (glyphosate IPA salt 648 gai/litre=2.84 M without adjuvant)] at a concentration of 0.25% (w/v). Demineralised water was used as the carrier.
(§2) Based on previous work, these rates were 77.8 gae/hectare (equivalent to 2.3 mM at 200 litres/hectare) on wheat and 30.4 gae/hectare (equivalent to 0.9 mM) on black nightshade. The experiments were conducted as a randomised complete block with four replicates. Two separate experiments were conducted for each of the two plant species. The data was subjected to analysis of variance using the Genstat statistical package (Release 6.1 from Rothamsted Experimental Station). The performance of the products on both species was expressed as a percentage of the FW of untreated plants. Examples 1 to 8 are according to the invention, examples C1 to C12 serve as comparison.

Experiment [2] concerns Winter wheat (Triticum aestivum). The experiment is described as follows: Greenhouse experiment: influence of adjuvants on glyphosate efficacy on wheat (fresh weight 21 DAT). In kind it is in vivo. As to conditions: adjuvant 0.25% w/v. The protocol:
as §1, §2

Setting [3] is: 0.6 mM glyphosate (20.3 g a.e./ha at 200 L/ha).
The mark [4] stands for this setting: 0.9 mM glyphosate (30.4 g a.e./ha at 200 L/ha).
Where [5] appears, read: average of trials 1 and 2, glyphosate 2.3 mM.
Where [6] appears, read: glyphosate 2.3 mM (77.8 g a.e./ha at 200 L/ha).

Structures can show the parent of a compound that is named as a salt.

On to `O=C(O)CNCP(=O)(O)O` [Gly, monoisopropylamine salt of glyphosate], for which, in experiment [1] (setting [3]), the “Trial 2 % (FW as percentage of the FW of untreated plants)” value turned out to be 84.5% and the “Trial 2 g FW” value worked out at 14.66 g. Further, in experiment [1] (setting [4]), the “Trial 1 % (FW as percentage of the FW of untreated plants)” value came to 35.1% and the “Trial 1 g FW” value was 5.59 g. In addition, in experiment [2] (setting [5]), the “Average % (FW as percentage of the FW of untreated plants)” value came out at 78.3% and the “Average g FW” value amounted to 18.15 g. Besides, in experiment [2] (setting [6]), the “Trial 1 g FW” value was 22.33 g and the “Trial 2 g FW” value is 13.97 g.
